Experimental data as given in patent US20060189608A1, “Methods for treating ocular angiogenesis, retinal edema, retinal ischemia, and diabetic retinopathy using selective RTK inhibitors” (Alcon, Inc., priority 2005, published 2006).

Tests used:
[1] = target: FGFR; test: Kinase inhibition profile, related RTK; format: biochemical; settings: ATP concentration of 1 nM
[2] = system: existing laser-induced choroidal neovascularization (CNV); test: Laser-induced CNV, oral gavage, regression paradigm, mouse; format: in vivo; settings: for Mean CNV / Median CNV: regression
Description: Methods. CNV was generated by laser-induced rupture of Bruch's membrane. Briefly, 4 to 5 week old male C57BL/6J mice were anesthetized using intraperitoneal administration of ketamine hydrochloride (100 mg/kg) and xylazine (5 mg/kg) and the pupils of both eyes dilated with topical ocular instillation of 1% tropicamide and 2.5% Mydfin®. One drop of topical cellulose (Gonioscopic®) was used to lubricate the cornea. A hand-held cover slip was applied to the cornea and used as a contact lens to aid visualization of the fundus. Three to four retinal burns were placed in randomly assigned eye (right or left eye for each mouse) using the Alcon 532 nm EyeLite laser with a slit 5 lamp delivery system. The laser burns were used to generate a rupture in Bruch's membrane, which was indicated ophthalmoscopically by the formation of a bubble under the retina. Only mice with laser burns that produced three bubbles per eye were included in the study. Bums were typically placed at the 3, 6, 9 or 12 o'clock positions in the posterior pole of the retina, avoiding the branch retinal arteries and veins.
Each mouse was randomly assigned into one of the following treatment groups: noninjected controls, sham-injected controls, vehicle-injected mice, or one of three RTKi-injected groups. Control mice received laser photocoagulation in both eyes, where one eye received a sham injection, i.e. a pars plana needle puncture. […] The intravitreal injection was performed immediately after laser photocoagulation. At 14 days post-laser, all mice were anesthetized and systemically perfused with fluorescein-labeled dextran. Eyes were then harvested and prepared as choroidal flat mounts with the RPE side oriented towards the observer. All choroidal flat mounts were examined using a fluorescent microscope. Digital images of the CNV were captured, where the CNV was identified as areas of hyperfluorescence within the pigmented background. Computerized image analysis was used to delineate and measure the two dimensional area of the hyperfluorescent CNV per lesion (um^2) for the outcome measurement. The median CNV area/burn per mouse per treatment group or the mean CNV area/burn per treatment group was used for statistical analysis depending on the normality of data distribution; P≦0.05 was considered significant.
METHODS: CNV was generated by laser-induced rupture of Bruch's membrane as described in Example 3 above. […] The mice received an oral gavage of 0, 1.5, 5, or 10 mg/kg twice per day and for 14 days post-laser. […] Oral gavage dosing was continued twice per day for 14 days post-laser. Several mice were Is euthanized at day 7 post-laser and used for controls. At 14 days post-laser, all mice were anesthetized and systemically perfused with fluorescein-labeled dextran. Eyes were then harvested and prepared as choroidal flat mounts as described in Example 3 above.

[3] = Pilot intraocular safety study, single intravitreal injection, adult rat; format: in vivo; settings: single intravitreal injection of 0.1 and 1.0%, up to 1 month postinjection
Excerpt: Outcome measures were followed up to 1 month postinjection and involved clinical (fundus photography & indirect ophthalmoscopy), functional (electroretinography), and morphologic (histopathology) methods.

In the case of `Cc1ccc(F)c(NC(=O)Nc2ccc(-c3cccc4[nH]nc(N)c34)cc2)c1` [AL-39324, N-[4-[3-amino-1H-indazol-4-yl)phenyl]-N′-(2-fluoro-5-methylphenyl)urea], the IC50 [1] is reported as greater than 12.5 µM, the “regression of existing CNV” value ([2]; 3 mg/kg/day oral from day 7 post-laser) is reported as “did not show a significant regression of existing CNV” and the “Mean CNV” value ([2]; 3 mg/kg/day oral) is reported as 35442 μm^2. For the same molecule, the “Median CNV” value ([2]; 3 mg/kg/day oral) was 33967 μm^2, the “regression of existing CNV as compared to nontreated controls” value ([2]; 10 mg/kg/day oral from day 7 post-laser) was 41.8% and the “Mean CNV” value ([2]; 10 mg/kg/day oral) was 29773 μm^2. For the same molecule, the “Median CNV” value ([2]; 10 mg/kg/day oral) was 27389 μm^2, the “regression of existing CNV as compared to nontreated controls” value ([2]; 20 mg/kg/day oral from day 7 post-laser) was 68.0% and the “Mean CNV” value ([2]; 20 mg/kg/day oral) was 15706 μm^2. The “Median CNV” value ([2]; 20 mg/kg/day oral) was 15036 μm^2 and the “adverse events (fundus, electroretinography, histopathology)” value [3] was “No significant adverse events”.
